Read-outs that look alike come from different tables or passages of the source.
Assays:
Type in all cases: biochemical
HGK/MAP4K4 = HGK/MAP4K4 (Homo sapiens, UniProt O95819); experiment: Radiolabeled ATP kinase assay (Reaction Biology Corp.), HGK; set-up: purchased Reaction Biology Corp; settings: 10 μM ATP, read-out: % Enzyme Activity (relative to DMSO controls), HGK/MAP4K4, Data 1
Protocol: (§1) Meanwhile, the same analogs were analyzed in a radiolabeled ATP assay (10 μM ATP; Reaction Biology Corp.) to compare the extent to which they could inhibit the activity of HGK, MLK1, or MLK3 in a cell-free environment (Table S3 and S4).

[1] = molecular target: T1, panel of 60 human kinases (Homo sapiens, UniProt Q9H2K8); experiment: Radiolabeled ATP kinase assay, panel of 60 kinases (Table S5); settings: TAOK3/JIK; 0.1 μM; 10 μM ATP; read-out: % Enzyme Activity (relative to DSMO controls)
T1 construct: purchased Reaction Biology Corp
T1 sequence (Q9H2K8 1-898): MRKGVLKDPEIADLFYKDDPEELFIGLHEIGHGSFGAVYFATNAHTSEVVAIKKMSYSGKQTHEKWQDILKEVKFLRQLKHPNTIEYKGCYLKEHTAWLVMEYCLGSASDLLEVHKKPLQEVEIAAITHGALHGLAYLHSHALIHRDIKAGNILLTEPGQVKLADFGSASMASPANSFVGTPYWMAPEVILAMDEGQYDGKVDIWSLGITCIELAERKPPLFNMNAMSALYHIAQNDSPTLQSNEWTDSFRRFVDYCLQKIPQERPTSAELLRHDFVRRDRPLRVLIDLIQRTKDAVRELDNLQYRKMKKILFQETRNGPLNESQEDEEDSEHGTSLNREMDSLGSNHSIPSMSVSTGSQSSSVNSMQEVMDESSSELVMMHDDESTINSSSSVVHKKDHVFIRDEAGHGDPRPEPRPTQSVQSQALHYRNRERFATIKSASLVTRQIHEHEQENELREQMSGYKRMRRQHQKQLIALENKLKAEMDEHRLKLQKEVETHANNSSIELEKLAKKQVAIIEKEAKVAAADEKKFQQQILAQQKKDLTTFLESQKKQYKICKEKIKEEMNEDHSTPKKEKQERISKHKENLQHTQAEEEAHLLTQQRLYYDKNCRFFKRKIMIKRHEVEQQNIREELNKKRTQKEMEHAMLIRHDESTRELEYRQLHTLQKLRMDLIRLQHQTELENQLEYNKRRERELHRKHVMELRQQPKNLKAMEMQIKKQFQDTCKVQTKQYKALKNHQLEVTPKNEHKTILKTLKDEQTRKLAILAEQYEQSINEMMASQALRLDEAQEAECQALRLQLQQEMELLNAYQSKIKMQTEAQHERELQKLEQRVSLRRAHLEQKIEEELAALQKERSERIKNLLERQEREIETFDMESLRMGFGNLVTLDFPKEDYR
In short: (§2)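 Cell-free radiolabeled-ATP kinase assays across a panel of 60 kinases; each compound tested at 0.1 μM and 0.5 μM for inhibition.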

[2] = molecular target: T2, panel of 60 human kinases (Homo sapiens, UniProt P49759); experiment: as above; settings: CLK1; 0.1 μM; 10 μM ATP; read-out: % Enzyme Activity (relative to DSMO controls)
T2 construct: purchased Reaction Biology Corp
T2 sequence (P49759 whole entry): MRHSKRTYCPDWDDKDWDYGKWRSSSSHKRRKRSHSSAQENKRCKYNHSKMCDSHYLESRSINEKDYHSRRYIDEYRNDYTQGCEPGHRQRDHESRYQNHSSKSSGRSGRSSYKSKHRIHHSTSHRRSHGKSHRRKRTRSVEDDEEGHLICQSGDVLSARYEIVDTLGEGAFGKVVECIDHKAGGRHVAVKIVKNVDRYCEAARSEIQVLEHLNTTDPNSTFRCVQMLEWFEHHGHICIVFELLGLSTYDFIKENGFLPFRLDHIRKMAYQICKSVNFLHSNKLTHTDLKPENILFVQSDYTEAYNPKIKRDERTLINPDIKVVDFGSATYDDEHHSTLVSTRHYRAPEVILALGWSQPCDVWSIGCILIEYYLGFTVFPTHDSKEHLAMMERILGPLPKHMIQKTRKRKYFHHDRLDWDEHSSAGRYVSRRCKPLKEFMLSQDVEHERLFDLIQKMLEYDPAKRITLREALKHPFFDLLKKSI
In short: as §2

[3] = molecular target: T3, panel of 60 human kinases (Homo sapiens, UniProt Q13164); experiment: as above; settings: 0.1 μM, 10 μM ATP, read-out: % Enzyme Activity (relative to DSMO controls)
T3 construct: purchased Reaction Biology Corp
T3 sequence (Q13164 whole entry): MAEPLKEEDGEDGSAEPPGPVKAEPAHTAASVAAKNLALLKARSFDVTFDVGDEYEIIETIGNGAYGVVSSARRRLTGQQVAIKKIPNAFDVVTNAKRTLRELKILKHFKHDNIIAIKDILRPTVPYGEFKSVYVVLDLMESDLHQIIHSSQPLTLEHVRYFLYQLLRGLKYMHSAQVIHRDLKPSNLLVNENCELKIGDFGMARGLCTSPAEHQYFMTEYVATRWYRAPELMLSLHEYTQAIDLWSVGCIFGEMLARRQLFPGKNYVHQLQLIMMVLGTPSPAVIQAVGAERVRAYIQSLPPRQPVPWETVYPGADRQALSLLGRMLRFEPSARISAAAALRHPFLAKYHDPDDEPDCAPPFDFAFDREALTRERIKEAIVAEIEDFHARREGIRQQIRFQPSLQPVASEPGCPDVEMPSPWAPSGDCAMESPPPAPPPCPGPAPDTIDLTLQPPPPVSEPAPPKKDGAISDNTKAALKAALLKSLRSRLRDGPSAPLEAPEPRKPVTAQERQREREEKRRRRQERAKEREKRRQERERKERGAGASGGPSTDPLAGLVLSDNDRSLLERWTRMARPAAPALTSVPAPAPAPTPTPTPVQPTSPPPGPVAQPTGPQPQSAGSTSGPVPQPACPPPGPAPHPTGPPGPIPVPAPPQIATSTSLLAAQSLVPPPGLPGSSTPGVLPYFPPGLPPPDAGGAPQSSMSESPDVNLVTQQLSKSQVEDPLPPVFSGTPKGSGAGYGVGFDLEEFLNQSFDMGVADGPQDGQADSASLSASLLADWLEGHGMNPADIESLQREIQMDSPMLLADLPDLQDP
In short: as §2

[4] = molecular target: T4, panel of 60 human kinases (Homo sapiens, UniProt Q00534); experiment: as above; settings: 0.1 μM, 10 μM ATP, read-out: % Enzyme Activity (relative to DSMO controls)
T4 construct: purchased Reaction Biology Corp
T4 sequence (Q00534 whole entry): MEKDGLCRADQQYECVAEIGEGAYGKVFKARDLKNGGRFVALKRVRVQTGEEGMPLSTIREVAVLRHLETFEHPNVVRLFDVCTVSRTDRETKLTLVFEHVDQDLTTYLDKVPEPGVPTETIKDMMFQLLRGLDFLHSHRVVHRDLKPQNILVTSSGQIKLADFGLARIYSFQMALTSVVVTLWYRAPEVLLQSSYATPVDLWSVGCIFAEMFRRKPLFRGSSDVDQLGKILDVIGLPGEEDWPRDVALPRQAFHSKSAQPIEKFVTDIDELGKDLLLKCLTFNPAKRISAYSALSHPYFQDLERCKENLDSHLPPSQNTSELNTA
In short: as §2

[5] = molecular target: T5, panel of 60 human kinases (Homo sapiens, UniProt Q15139); experiment: as above; settings: PKCmu/PRKD1; 0.1 μM; 10 μM ATP; read-out: % Enzyme Activity (relative to DSMO controls)
T5 construct: purchased Reaction Biology Corp
T5 sequence (Q15139 1-912): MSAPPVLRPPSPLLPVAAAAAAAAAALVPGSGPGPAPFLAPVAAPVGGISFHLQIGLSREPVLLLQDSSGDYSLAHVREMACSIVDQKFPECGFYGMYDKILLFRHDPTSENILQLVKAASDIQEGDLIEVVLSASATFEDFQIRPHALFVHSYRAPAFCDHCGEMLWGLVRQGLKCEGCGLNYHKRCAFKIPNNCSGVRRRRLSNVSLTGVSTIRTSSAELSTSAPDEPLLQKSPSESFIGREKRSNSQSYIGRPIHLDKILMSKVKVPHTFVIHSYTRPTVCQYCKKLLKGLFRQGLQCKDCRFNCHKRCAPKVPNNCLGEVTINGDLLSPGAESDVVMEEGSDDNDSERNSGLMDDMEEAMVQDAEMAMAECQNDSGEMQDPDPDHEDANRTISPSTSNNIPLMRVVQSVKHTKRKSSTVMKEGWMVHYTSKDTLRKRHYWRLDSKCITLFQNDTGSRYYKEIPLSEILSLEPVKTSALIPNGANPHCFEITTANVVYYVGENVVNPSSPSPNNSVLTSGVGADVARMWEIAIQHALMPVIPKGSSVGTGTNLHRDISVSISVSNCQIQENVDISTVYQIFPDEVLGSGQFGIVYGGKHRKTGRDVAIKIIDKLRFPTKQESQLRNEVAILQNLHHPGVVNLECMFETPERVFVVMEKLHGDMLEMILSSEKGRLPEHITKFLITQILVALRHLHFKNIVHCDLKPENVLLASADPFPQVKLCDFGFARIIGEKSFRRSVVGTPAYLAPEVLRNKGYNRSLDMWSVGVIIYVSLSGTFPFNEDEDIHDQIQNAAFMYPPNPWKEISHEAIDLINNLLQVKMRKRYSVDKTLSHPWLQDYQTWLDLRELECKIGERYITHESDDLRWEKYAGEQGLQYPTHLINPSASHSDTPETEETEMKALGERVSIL
In short: as §2

[6] = molecular target: T6, panel of 60 human kinases (Homo sapiens, UniProt P08581); experiment: as above; settings: c-MET; 0.1 μM; 10 μM ATP; read-out: % Enzyme Activity (relative to DSMO controls)
T6 construct: purchased Reaction Biology Corp
In short: as §2

MLK1/MAP3K9 = molecular target: T7, MLK1/MAP3K9 (Homo sapiens, UniProt P80192); experiment: Radiolabeled ATP kinase assay (Reaction Biology Corp.), MLK1; settings: [Cmpd] 0.1 μM, 10 μM ATP
T7 construct: purchased Reaction Biology Corp
T7 sequence (P80192 whole entry): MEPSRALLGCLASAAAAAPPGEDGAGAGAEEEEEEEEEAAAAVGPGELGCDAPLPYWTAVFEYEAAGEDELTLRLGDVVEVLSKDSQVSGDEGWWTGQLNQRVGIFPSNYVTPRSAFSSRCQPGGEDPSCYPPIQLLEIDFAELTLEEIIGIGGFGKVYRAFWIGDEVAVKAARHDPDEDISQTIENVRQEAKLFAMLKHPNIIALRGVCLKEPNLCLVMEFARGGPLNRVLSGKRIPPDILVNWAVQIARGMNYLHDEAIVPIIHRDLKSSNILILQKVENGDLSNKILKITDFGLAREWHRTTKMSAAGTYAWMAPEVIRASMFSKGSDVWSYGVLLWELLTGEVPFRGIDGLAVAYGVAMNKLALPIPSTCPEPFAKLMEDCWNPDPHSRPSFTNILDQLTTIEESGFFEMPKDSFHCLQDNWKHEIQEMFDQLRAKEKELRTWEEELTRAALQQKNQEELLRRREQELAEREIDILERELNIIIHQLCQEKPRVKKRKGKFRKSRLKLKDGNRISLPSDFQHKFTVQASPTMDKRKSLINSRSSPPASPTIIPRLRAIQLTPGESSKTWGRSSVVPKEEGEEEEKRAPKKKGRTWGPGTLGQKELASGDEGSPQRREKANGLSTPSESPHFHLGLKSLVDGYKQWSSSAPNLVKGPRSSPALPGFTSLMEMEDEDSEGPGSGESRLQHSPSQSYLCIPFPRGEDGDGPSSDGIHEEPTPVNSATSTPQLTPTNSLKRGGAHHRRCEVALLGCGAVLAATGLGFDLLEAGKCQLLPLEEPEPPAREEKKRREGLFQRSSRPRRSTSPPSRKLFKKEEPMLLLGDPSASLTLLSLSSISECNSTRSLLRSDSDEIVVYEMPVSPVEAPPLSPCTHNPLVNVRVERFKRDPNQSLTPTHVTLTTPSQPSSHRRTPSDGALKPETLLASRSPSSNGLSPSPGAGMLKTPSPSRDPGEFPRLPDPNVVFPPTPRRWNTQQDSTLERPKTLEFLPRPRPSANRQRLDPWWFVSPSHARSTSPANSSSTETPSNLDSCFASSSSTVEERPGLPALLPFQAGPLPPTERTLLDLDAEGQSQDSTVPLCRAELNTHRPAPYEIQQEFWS
Protocol: as §1

Chain of HGK/MAP4K4 (O95819 whole entry): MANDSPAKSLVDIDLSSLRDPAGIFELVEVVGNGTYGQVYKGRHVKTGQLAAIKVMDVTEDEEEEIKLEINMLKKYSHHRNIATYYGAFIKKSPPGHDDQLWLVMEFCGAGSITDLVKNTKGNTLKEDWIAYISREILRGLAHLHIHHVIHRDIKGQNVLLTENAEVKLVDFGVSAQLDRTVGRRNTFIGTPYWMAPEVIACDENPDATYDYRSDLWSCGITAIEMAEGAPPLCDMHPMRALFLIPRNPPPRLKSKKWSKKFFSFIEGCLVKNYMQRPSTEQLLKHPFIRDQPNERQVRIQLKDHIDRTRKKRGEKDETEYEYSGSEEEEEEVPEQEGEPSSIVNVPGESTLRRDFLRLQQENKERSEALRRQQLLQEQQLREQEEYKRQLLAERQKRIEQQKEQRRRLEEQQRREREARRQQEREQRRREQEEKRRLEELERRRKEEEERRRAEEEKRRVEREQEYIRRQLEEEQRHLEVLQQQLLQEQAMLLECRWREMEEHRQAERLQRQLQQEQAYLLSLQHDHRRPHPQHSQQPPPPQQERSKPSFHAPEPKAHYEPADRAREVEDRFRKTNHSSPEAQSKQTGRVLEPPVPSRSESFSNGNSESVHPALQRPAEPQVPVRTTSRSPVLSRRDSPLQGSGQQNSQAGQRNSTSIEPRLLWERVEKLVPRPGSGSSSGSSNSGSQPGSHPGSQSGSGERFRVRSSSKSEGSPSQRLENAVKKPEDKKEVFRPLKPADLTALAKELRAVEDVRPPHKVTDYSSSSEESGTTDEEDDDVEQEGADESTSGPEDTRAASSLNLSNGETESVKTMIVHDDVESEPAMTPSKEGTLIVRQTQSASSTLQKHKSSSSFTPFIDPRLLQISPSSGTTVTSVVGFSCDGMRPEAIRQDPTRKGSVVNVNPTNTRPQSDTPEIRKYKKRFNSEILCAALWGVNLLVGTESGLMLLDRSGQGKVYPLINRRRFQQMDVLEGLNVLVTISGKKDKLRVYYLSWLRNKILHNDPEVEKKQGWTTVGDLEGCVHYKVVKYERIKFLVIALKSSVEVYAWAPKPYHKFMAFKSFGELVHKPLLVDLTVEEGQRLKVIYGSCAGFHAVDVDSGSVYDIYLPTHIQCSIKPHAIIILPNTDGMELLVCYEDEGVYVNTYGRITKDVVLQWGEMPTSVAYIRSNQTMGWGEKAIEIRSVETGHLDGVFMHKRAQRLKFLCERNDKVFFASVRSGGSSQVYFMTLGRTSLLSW

## CN1CCN(Cc2ccc(-c3cnc4[nH]cc(-c5ccoc5)c4c3)cc2)CC1 [Compound 7w, 3-(Furan-3-yl)-5-(4-((4-methylpiperazin-1-yl)methyl)phenyl)-1H-pyrrolo[2,3-b]pyridine]
HGK/MAP4K4; [Cmpd] 0.025 μM
  remaining activity at 0.025 µM: 29%
HGK/MAP4K4; [Cmpd] 0.1 μM
  remaining activity at 0.1 µM: 4.46%
[1]
  remaining activity at 0.1 µM: 95.2%
[2]
  remaining activity at 0.1 µM: 81.9%
[3]; ERK5/MAPK7 (CD)
  remaining activity at 0.1 µM: 96.3%
[3]; ERK5/MAPK7
  remaining activity at 0.1 µM: 108%
[4]; CDK6/cyclin D1
  remaining activity at 0.1 µM: 58.5%
[4]; CDK6/cyclin D3
  remaining activity at 0.1 µM: 68.4%
[5]
  remaining activity at 0.1 µM: 20.4%
[6]
  remaining activity at 0.1 µM: 96.6%
MLK1/MAP3K9; read-out: % Enzyme Activity Remaining (relative to DMSO controls), MLK1/MAP3K9, Data 1
  remaining activity at 0.1 µM: 76%
MLK1/MAP3K9; read-out: % Enzyme Activity Remaining (relative to DMSO controls), MLK1/MAP3K9, Data 2
  remaining activity at 0.1 µM: 79.3%

— US12227500B2, “Substituted pyrrolo[2,3-b]pyridines for suppressing toxic endoplasmic reticulum stress” (THE TRUSTEES OF COLUMBIA UNIVERSITY IN THE CITY OF NEW YORK, priority 2018, dated 2025)
